{
  "source": "patent US20200102349A1",
  "about": "“PEPTIDE REAGENTS AND METHODS FOR DETECTION AND TARGETING OF DYSPLASIA, EARLY CANCER AND CANCER” (THE REGENTS OF THE UNIVERSITY OF MICHIGAN, priority 2014, published 2020)",
  "key": {"[1]": {"test_system": "vascular endothelial growth factor A (VEGFA)", "sequence (P15692 207-311 limits assumed)": "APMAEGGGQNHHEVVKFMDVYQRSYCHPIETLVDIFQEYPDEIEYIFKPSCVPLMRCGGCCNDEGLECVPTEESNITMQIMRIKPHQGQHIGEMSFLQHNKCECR", "details": "n=14 BE patients, topical and systemic; cited from earlier work"}, "ErbB2": {"target": "T1, ErbB2 (Homo sapiens, UniProt P04626)", "T1 construct": "topically administered into the distal esophagus using a standard spray catheter; from tissue; host or cells: distal esophagus mucosa of Barrett's patients, in vivo", "assay": "Multiplexed in vivo imaging of distal esophagus in patients, KSP*-IRDye800 channel", "protocol": "A multi-modal scanning fiber endoscope (mmSFE) was designed to collect fluorescence and reflectance concurrently. A custom fiber-coupled multi-laser system (SpectraTEC, Blue Sky Research) provides illumination at λex=638 and 785 nm concurrently through a single mode fiber (SMF) to excite QRH*-Cy5 and KSP*-IRDye800, respectively. A 0.4 mm diameter metal coated piezo tube actuator (Nagamine) generates a spiral scan pattern at an average maximum deflection angle of about 70°. Large core (500 μm diameter) multi-mode fibers (MMF) with high numerical aperture (NA=0.6, Mitsubishi Rayon) are arranged around the instrument periphery to maximize light collection.^38 The diameter and rigid length of the distal tip were designed to pass forward easily through the working channel of a standard upper endoscope.\nThe optics used to separate and collect fluorescence from each peptide was contained within the base station (VerAvanti). A notch filter (NF, # NF03-785E-25, Semrock) was used to attenuate the excitation beam at λ=785 nm. Reflectance at λ=[…] was deflected by a dichroic beam splitter (BS1, # FF652-Di02, Semrock) to a multi-pixel photon counter (MPPC1, SiPM, Hamamatsu) for detection. Fluorescence from QRH*-Cy5 was deflected by a second beam splitter (BS2, # Di02-R785, Semrock) centered at λ=785 nm through a bandpass filter (BPF, FF01-697/58, Semrock) that transmits between 668-726 nm for detection by MPPC2. Fluorescence from KSP*-IRDye800 passes through BS2 and long pass filter (LPF, # BLP01-785R, Semrock) with cutoff at λ=805 nm and is detected by MPPC3. Kinematic filter cubes (DFM1/M, ThorLabs) were used to mount and align the optics.\nConsecutive patients referred to Michigan Medicine for either evaluation or therapy of Barrett's neoplasia (LGD/HGD/EAC) were recruited. Inclusion criteria included: 1) history of Barrett's neoplasia, 2) medically able to tolerate upper endoscopy, and 3) age over 18. Exclusion criteria included: 1) history of esophagectomy and 2) on active chemotherapy or radiation protocol. The multiplexed imaging study was approved by the University of Michigan IRB, and was registered online at ClinicalTrials.gov (NCT03589443). […] Separate channels were used to record fluorescence images from QRH*-Cy5 and KSP*-IRDye800 and from reflectance at λ=638 nm. The conventional white light illumination was shut off during collection of fluorescence images to prevent interference. […]\nVideo streams with greater than 30 consecutive images (1 second) that had negligible artifacts, including debris, bubbles, pooling, and conventional white light, were extracted from the original recordings. Single frames from the target regions with high contrast and minimum motion blur and distortion were selected for intensity quantification. The frames were separated into two fluorescence channels and a co-registered reflectance image. Target/background (T/B) ratios were calculated for each fluorescence image as follows. […] Fluorescence regions with high intensity were segmented using the Chan-Vese algorithm,^39 where an active contour model was evolved iteratively to minimize the energy function, Eq. 1, defined by the weighted sum of the 1) boundary length, 2) area, and variance of intensity 3) inside and 4) outside of the segmented region. […]"}, "[2]": {"assay": "Stability of lyophilized cGMP peptides on storage", "assay_type": "physicochemical", "details": "KSP*-IRDye800 lyophilized, −20° C.; for Molecular: molecular weight by Q-TOF", "description": "QRHKPRE (SEQ ID NO: 1) was labeled with Cy5 via a GGGSK (SEQ ID NO: 18) linker to prevent steric hindrance. This sequence was selected using phage display methods for specific binding to EGFR.^22 KSPNPRF (SEQ ID NO: 26) was labeled with IRDye800 via a GGGSC (SEQ ID NO: 27) linker, hereafter KSP*-IRDye800. This sequence was identified using a structural model for specific binding to ErbB2.^23 The fluorophores used were chosen to minimize spectral overlap between absorbance and emission. QRH*-Cy5 and KSP*-IRDye800 were synthesized using current good manufacturing practices (cGMP) methods. Peptide stability was monitored by visual appearance, purity (HPLC), and molecular weight over the duration of the study."}, "[3]": {"assay": "Pharmacology/toxicology study in rats, single dose oral gavage", "assay_type": "in vivo", "details": "for Blood tests (days 2 and 15) / Clinical signs / Necropsy (days 2 and 15) / Observe (morbidity, mortality, injury, body weights, food and water consumption) / Urinalysis: oral gavage", "protocol": "A rigorous pharmacology/toxicology study was performed in animals (MPI Research) for each peptide to provide pre-clinical evidence for safety. A total of 24 male and 24 female rats (CD®[Crl:CD® (SD)] (Charles River) were used in each study. At 8 weeks of age, the animals were randomly assigned to 4 groups, including 3 treatment and 1 control. Dose levels of 0.0086, 0.026, and 0.86 mg/kg were used for QRH*-Cy5, and 0.186, 0.32, and 1.08 mg/kg were used for KSP*-IRDye800. The control group received 10 mL/kg of PBS as vehicle. The vehicle and test articles were administered by single dose oral gavage. Clinical signs, including morbidity, mortality, and injury, were monitored twice daily. Laboratory tests and necropsy were evaluated in 3 animals/sex/dose on days 2 and 15."}, "[4]": {"test_system": "Barrett's neoplasia (HGD/EAC)", "assay": "Multiplexed in vivo imaging of distal esophagus in patients, both channels combined", "design": "species or system human", "details": "topical, 5 minutes incubation", "protocol": "A multi-modal scanning fiber endoscope (mmSFE) was designed to collect fluorescence and reflectance concurrently. A custom fiber-coupled multi-laser system (SpectraTEC, Blue Sky Research) provides illumination at λex=638 and 785 nm concurrently through a single mode fiber (SMF) to excite QRH*-Cy5 and KSP*-IRDye800, respectively. A 0.4 mm diameter metal coated piezo tube actuator (Nagamine) generates a spiral scan pattern at an average maximum deflection angle of about 70°. […]\nThe optics used to separate and collect fluorescence from each peptide was contained within the base station (VerAvanti). […] Fluorescence from QRH*-Cy5 was deflected by a second beam splitter (BS2, # Di02-R785, Semrock) centered at λ=785 nm through a bandpass filter (BPF, FF01-697/58, Semrock) that transmits between 668-726 nm for detection by MPPC2. Fluorescence from KSP*-IRDye800 passes through BS2 and long pass filter (LPF, # BLP01-785R, Semrock) with cutoff at λ=805 nm and is detected by MPPC3. […]\nConsecutive patients referred to Michigan Medicine for either evaluation or therapy of Barrett's neoplasia (LGD/HGD/EAC) were recruited. […] Separate channels were used to record fluorescence images from QRH*-Cy5 and KSP*-IRDye800 and from reflectance at λ=638 nm. The conventional white light illumination was shut off during collection of fluorescence images to prevent interference. […]"}, "[5]": {"assay": "Phase 1 first-in-human safety study, oral administration", "assay_type": "in vivo", "details": "n=25 human subjects, 0.5 mg or 1.2 mg", "protocol": "A first-in-human study was performed to establish clinical evidence of safety for each peptide. An Investigational New Drug (IND) application (sponsor DKT) was prepared, and submitted for review to the US Food and Drug Administration (FDA). […] The study protocols were reviewed and approved by the Institutional Review Board (IRB) at the University of Michigan. These studies, including NCT02574858 (QRH*-Cy5) and NCT03161418 (KSP*-IRDye800), were registered online at ClinicalTrials.gov. A total of n=25 subjects was recruited for each study. All enrolled patients provided written informed consent. A dose escalation study was performed. The first n=3 subjects were administered 0.5 mg of peptide reconstituted in 5 mL of normal saline (0.9%) per oral. […] An electrocardiogram (EKG) was performed and vital signs were monitored. […] No images were collected during the safety study."}},
  "data": [
    {"substance": "Bevacizumab: antibody specific for VEGFA, repurposed for diagnostic imaging by labeling with IRDye800", "values": [
      {"measurement": "increase in detection of early lesions using fluorescence compared with HD-WLE and NBI", "setting": "[1]", "value": "about 33%"}
    ]},
    {"substance": "Lys^1-Ser^2-Pro^3-Asn^4-Pro^5-Arg^6-Phe^7-Gly^8-Gly^9-Gly^10-Ser^11-Cys^12(IRDye800) [KSP*-IRDye800]", "values": [
      {"measurement": "mean (±SD) T/B ratio", "setting": "ErbB2; HGD (n=7) and EAC (n=6)", "value": "1.68±0.24"},
      {"measurement": "T/B ratio", "setting": "ErbB2; LGD (n=1)", "value": 1.14},
      {"measurement": "mean (±SD) T/B ratio", "setting": "ErbB2; SQ (n=3) and NDBE (n=6), topical, distal esophagus", "value": "1.28±0.14"},
      {"measurement": "Accuracy", "setting": "ErbB2; T/B ratio from KSP*-IRDye800 alone, HGD/EAC vs SQ/NDBE/LGD, LOOCV", "value": 83, "unit": "%"},
      {"measurement": "AUC", "setting": "ErbB2; T/B ratio from KSP*-IRDye800 alone, average of 1000 bootstrap samples", "value": 0.95},
      {"measurement": "Molecular", "setting": "[2]; time 0", "value": 2397.6},
      {"measurement": "Molecular", "setting": "[2]; time 12", "value": 2397.5},
      {"measurement": "Molecular", "setting": "[2]; time 24", "value": 2397.6},
      {"measurement": "Molecular", "setting": "[2]; time 36", "value": 2397.6},
      {"measurement": "Purity (HPLC)", "setting": "[2]; time 0", "value": 98.8, "unit": "%"},
      {"measurement": "Purity (HPLC)", "setting": "[2]; time 6", "value": 98.8, "unit": "%"},
      {"measurement": "Purity (HPLC)", "setting": "[2]; time 12", "value": 98.7, "unit": "%"},
      {"measurement": "Purity (HPLC)", "setting": "[2]; time 18", "value": 98.9, "unit": "%"},
      {"measurement": "Purity (HPLC)", "setting": "[2]; time 24", "value": 98.9, "unit": "%"},
      {"measurement": "Purity (HPLC)", "setting": "[2]; time 30", "value": 98.7, "unit": "%"},
      {"measurement": "Purity (HPLC)", "setting": "[2]; time 36", "value": 98.9, "unit": "%"},
      {"measurement": "Blood tests (days 2 and 15)", "setting": "[3]; KSP*-IRDye800 0.186 mg/kg", "value": "NAD"},
      {"measurement": "Clinical signs", "setting": "[3]; KSP*-IRDye800 0.186 mg/kg", "value": "NAD"},
      {"measurement": "Necropsy (days 2 and 15)", "setting": "[3]; KSP*-IRDye800 0.186 mg/kg", "value": "NAD"},
      {"measurement": "Observe (morbidity, mortality, injury, body weights, food and water consumption)", "setting": "[3]; KSP*-IRDye800 0.186 mg/kg", "value": "NAD"},
      {"measurement": "Urinalysis", "setting": "[3]; KSP*-IRDye800 0.186 mg/kg", "value": "NAD"},
      {"measurement": "Blood tests (days 2 and 15)", "setting": "[3]; KSP*-IRDye800 0.32 mg/kg", "value": "NAD"},
      {"measurement": "Clinical signs", "setting": "[3]; KSP*-IRDye800 0.32 mg/kg", "value": "NAD"},
      {"measurement": "Necropsy (days 2 and 15)", "setting": "[3]; KSP*-IRDye800 0.32 mg/kg", "value": "NAD"},
      {"measurement": "Observe (morbidity, mortality, injury, body weights, food and water consumption)", "setting": "[3]; KSP*-IRDye800 0.32 mg/kg", "value": "NAD"},
      {"measurement": "Urinalysis", "setting": "[3]; KSP*-IRDye800 0.32 mg/kg", "value": "NAD"},
      {"measurement": "Blood tests (days 2 and 15)", "setting": "[3]; KSP*-IRDye800 1.08 mg/kg", "value": "NAD"},
      {"measurement": "Clinical signs", "setting": "[3]; KSP*-IRDye800 1.08 mg/kg", "value": "NAD"},
      {"measurement": "Necropsy (days 2 and 15)", "setting": "[3]; KSP*-IRDye800 1.08 mg/kg", "value": "NAD"},
      {"measurement": "Observe (morbidity, mortality, injury, body weights, food and water consumption)", "setting": "[3]; KSP*-IRDye800 1.08 mg/kg", "value": "NAD"},
      {"measurement": "Urinalysis", "setting": "[3]; KSP*-IRDye800 1.08 mg/kg", "value": "NAD"},
      {"measurement": "acute adverse effects in animal pharmacology/toxicology study (GLP)", "setting": "[3]; single dose oral gavage", "value": "No acute adverse effects"},
      {"measurement": "fluorescence from regions of HGD and EAC in vivo", "setting": "[4]", "value": "Increased fluorescence intensities"},
      {"measurement": "abnormalities in laboratory results, urinalysis, and EKG", "setting": "[5]", "value": "No abnormalities"},
      {"measurement": "adverse events (AE)", "setting": "[5]", "value": "no adverse events"}
    ]}
  ]
}
